Drawing on PubChem BioAssay AID652267 (Sanford-Burnham Center for Chemical Genomics, 2013), this text covers IC50 for 6 compounds.

Calls of active or inactive are those of the source.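 Rule for the calls: active = compound that lowers ATP signal in parent HT1080 cells at potency within fivefold of its primary screen potency; inactive = the rest.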

In general, IC50 refers to the concentration needed to halve the response being measured.

In the test the test system is HT1080 viability, ATPLite luminescence, overnight. Put plainly: HT1080 parental cell cytotoxicity, SAR follow-up, cytotoxicity control for MT1-MMP activation inhibitor project, ATPLite luminescence (AID 652267).
As to `CN1/C(=C\C(=O)c2cncc(Br)c2)C(C)(C)c2ccccc21`, the IC50 is > 80 µM (inactive).

In the case of `CCn1c(=O)c(=O)[nH]c2cc(C(=O)NC3CCCc4ccccc43)ccc21` (stereo unspecified), the IC50 was 15.5 µM.

On to `CN1/C(=C/C=C/c2n(C)c3cc([N+](=O)[O-])c([N+](=O)[O-])cc3[n+]2C)C(C)(C)c2ccccc21`, for which the IC50 is 40.2 µM (inactive).

For `Cc1c(C(=O)OCC(=O)NCC2CCCO2)oc2ccccc12` (stereo unspecified), the IC50 was 30.3 µM (inactive).

With `O=Nc1c(-c2c(O)[nH]c3cc(Br)ccc23)[nH]c2ccccc12`, the IC50 is 36.9 µM (inactive).

In the case of `COc1ccc(C)cc1Nc1nc(-c2c(C)[nH]c3ccccc23)cs1`, the IC50 was > 80 µM (inactive).
